According to patent US6737383B1, “Herbicidal oxadiazolidines” (priority 1999, dated 2004):

Tests used:
[1] = system: bedstraw; experiment: Test B pre/postemergence bedstraw; assay type: in vivo, Galium aparine
Procedure, shortened: (§1)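 Test chemicals in a non-phytotoxic solvent mixture with surfactant were sprayed preemergence onto planted seeds and postemergence onto plants 2 to 18 cm tall (1- to 4-leaf stage). After twelve to sixteen days in a greenhouse, injury was visually rated against untreated controls from 0 (no effect) to 10 (complete control).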

[2] = system: blackgrass; experiment: Test B pre/postemergence blackgrass; assay type: in vivo, Alopecurus myosuroides
Procedure, shortened: as §1

[3] = system: surinam grass; experiment: Test B pre/postemergence surinam grass; assay type: in vivo, Brachiaria decumbens
Procedure, shortened: as §1

[4] = system: cocklebur; experiment: Test B pre/postemergence cocklebur; assay type: in vivo, Xanthium strumarium
Procedure, shortened: as §1

[5] = system: corn; experiment: Test B pre/postemergence corn; assay type: in vivo, Zea mays
Procedure, shortened: as §1

[6] = system: crabgrass; experiment: Test B pre/postemergence crabgrass; assay type: in vivo, Digitaria sanguinalis
Procedure, shortened: as §1

[7] = system: giant foxtail; experiment: Test B pre/postemergence giant foxtail; assay type: in vivo, Setaria faberii
Procedure, shortened: as §1

[8] = system: morningglory; experiment: Test B pre/postemergence morningglory; assay type: in vivo, Ipomoea hederacea
Procedure, shortened: as §1

[9] = system: pigweed; experiment: Test B pre/postemergence pigweed; assay type: in vivo, Amaranthus retroflexus
Procedure, shortened: as §1

[10] = system: soybean; experiment: Test B pre/postemergence soybean; assay type: in vivo, Glycine max
Procedure, shortened: as §1

[11] = system: sugar beet; experiment: Test B pre/postemergence sugar beet; assay type: in vivo, Beta vulgaris
Procedure, shortened: as §1

[12] = system: wild oat; experiment: Test B pre/postemergence wild oat; assay type: in vivo, Avena fatua
Procedure, shortened: as §1

[13] = system: purple nutsedge; experiment: Test B pre/postemergence purple nutsedge; assay type: in vivo, Cyperus rotundus
Procedure, shortened: as §1

[14] = system: rice; experiment: Test B flood test rice; assay type: in vivo, Oryza sativa
Procedure, shortened: (§2)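 Read-out is a visual response score from 0 (no effect) to 10 (complete control), assigned by comparison with untreated controls. Treatment was applied at the 2-leaf stage, and plants stayed in the greenhouse for twelve to sixteen days before scoring.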

[15] = system: smallflower flatsedge; experiment: Test B flood test smallflower flatsedge; assay type: in vivo, Cyperus difformis
Procedure, shortened: as §2

[16] = system: duck salad; experiment: Test B flood test duck salad; assay type: in vivo, Heteranthera limosa
Procedure, shortened: as §2

[17] = Preemergence, Rate 31 g/ha, visual rating, scale 0 to 10 (0 no effect, 10 complete control)
[18] = Preemergence, Rate 250 g/ha, scale 0 to 10, 0 is no effect, 10 is complete control
[19] = Rate 31 g/ha, Postemergence, scale 0 to 10
[20] = Rate 62 g/ha, Postemergence, scale of 0 to 10 where 0 is no effect and 10 is complete control
[21] = Rate 125 g/ha, Postemergence, scale 0 to 10
[22] = Preemergence, Rate 62 g/ha, scale of 0 to 10 where 0 is no effect and 10 is complete control
[23] = Preemergence, Rate 125 g/ha, 0 is no effect, 10 is complete control
[24] = Rate 31 g/ha, Pre-emergence section (flood test species), scale 0 to 10
[25] = Rate 62 g/ha, headed Pre-emergence (flood test species), scale 0 to 10 (0 no effect, 10 complete control)
[26] = Rate 125 g/ha, Pre-emergence, flood test species, scale 0 to 10 where 0 is no effect and 10 is complete control
[27] = Rate 250 g/ha, Pre-emergence, flood-test species, scale 0 to 10, 0 is no effect, 10 is complete control

Cc1ccccc1-n1c(=O)on(C(=O)N(c2ccc(F)cc2)C2CCC2)c1=O [Compound 200]
Bedstraw plant response rating [1, 17]: 0 | Bedstraw plant response rating [1, 18]: 0 | Bedstraw plant response rating [1, 19]: 0 | Bedstraw plant response rating [1, 20]: 0 | Bedstraw plant response rating [1, 21]: 0 | Plant response rating (0 to 10; 0 is no effect, 10 is complete control), Bedstraw ([1]; Rate 250 g/ha, Postemergence): 0 | Blackgrass plant response rating [2, 17]: 0 | Blackgrass plant response rating [2, 22]: 0 | Blackgrass plant response rating (0 to 10 scale) [2, 23]: 5 | Blackgrass plant response rating [2, 18]: 7 | Blackgrass plant response rating [2, 19]: 0 | Blackgrass plant response rating [2, 20]: 0 | Blackgrass plant response rating [2, 21]: 0 | Plant response rating (0 to 10; 0 is no effect, 10 is complete control), Blackgrass ([2]; Rate 250 g/ha, Postemergence): 0 | B. signalgrass plant response rating [3, 17]: 0 | B. signalgrass plant response rating [3, 22]: 0 | B. signalgrass plant response rating (0 to 10 scale) [3, 23]: 0 | B. signalgrass plant response rating [3, 18]: 0 | B. signalgrass plant response rating [3, 19]: 0 | B. signalgrass plant response rating [3, 20]: 0 | B. signalgrass plant response rating ([3]; Rate 125 g/ha, Postemergence, scale 0 (no effect) to 10 (complete control)): 0 | Plant response rating, B. signalgrass ([3]; Rate 250 g/ha, Postemergence, scale 0 to 10, 0 is no effect, 10 is complete control): 0 | Cocklebur plant response rating [4, 17]: 0 | Cocklebur plant response rating [4, 22]: 0 | Cocklebur plant response rating (0 to 10 scale) [4, 23]: 0 | Cocklebur plant response rating [4, 18]: 0 | Cocklebur plant response rating [4, 19]: 0 | Cocklebur plant response rating [4, 20]: 0 | Cocklebur plant response rating [4, 21]: 0 | Plant response rating (0 to 10; 0 is no effect, 10 is complete control), Cocklebur ([4]; Rate 250 g/ha, Postemergence): 0 | Corn plant response rating [5, 17]: 0 | Corn plant response rating [5, 22]: 0 | Corn plant response rating (0 to 10 scale) [5, 23]: 0 | Corn plant response rating [5, 18]: 0 | Corn plant response rating [5, 19]: 0 | Corn plant response rating [5, 20]: 0 | Corn plant response rating [5, 21]: 0 | Plant response rating (0 to 10; 0 is no effect, 10 is complete control), Corn ([5]; Rate 250 g/ha, Postemergence): 0 | Crabgrass plant response rating [6, 17]: 0 | Crabgrass plant response rating [6, 22]: 0 | Crabgrass plant response rating (0 to 10 scale) [6, 23]: 2 | Crabgrass plant response rating [6, 18]: 6 | Crabgrass plant response rating [6, 19]: 0 | Crabgrass plant response rating [6, 20]: 0 | Crabgrass plant response rating [6, 21]: 1 | Plant response rating (0 to 10; 0 is no effect, 10 is complete control), Crabgrass ([6]; Rate 250 g/ha, Postemergence): 2 | Giant foxtail plant response rating [7, 17]: 0 | Giant foxtail plant response rating [7, 22]: 0 | Giant foxtail plant response rating (0 to 10 scale) [7, 23]: 4 | Giant foxtail plant response rating [7, 18]: 6 | Giant foxtail plant response rating [7, 19]: 0 | Giant foxtail plant response rating [7, 20]: 0 | Giant foxtail plant response rating [7, 21]: 0 | Plant response rating (0 to 10; 0 is no effect, 10 is complete control), Giant foxtail ([7]; Rate 250 g/ha, Postemergence): 0 | Morningglory plant response rating [8, 17]: 0 | Morningglory plant response rating [8, 22]: 0 | Morningglory plant response rating (0 to 10 scale) [8, 23]: 0 | Morningglory plant response rating [8, 18]: 0 | Morningglory plant response rating [8, 19]: 0 | Morningglory plant response rating [8, 20]: 0 | Morningglory plant response rating [8, 21]: 0 | Plant response rating (0 to 10; 0 is no effect, 10 is complete control), Morningglory ([8]; Rate 250 g/ha, Postemergence): 2 | Redroot pigweed plant response rating [9, 17]: 0 | Redroot pigweed plant response rating [9, 22]: 0 | Redroot pigweed plant response rating (0 to 10 scale) [9, 23]: 0 | Redroot pigweed plant response rating [9, 18]: 0 | Redroot pigweed plant response rating [9, 19]: 0 | Redroot pigweed plant response rating [9, 20]: 0 | Redroot pigweed plant response rating [9, 21]: 0 | Plant response rating (0 to 10; 0 is no effect, 10 is complete control), Redroot pigweed ([9]; Rate 250 g/ha, Postemergence): 0 | Soybean plant response rating [10, 17]: 0 | Soybean plant response rating [10, 22]: 0 | Soybean plant response rating (0 to 10 scale) [10, 23]: 0 | Soybean plant response rating [10, 18]: 0 | Soybean plant response rating [10, 20]: 2 | Soybean plant response rating [10, 21]: 2 | Plant response rating (0 to 10; 0 is no effect, 10 is complete control), Soybean ([10]; Rate 250 g/ha, Postemergence): 2 | Sugarbeets plant response rating [11, 17]: 0 | Sugarbeets plant response rating [11, 22]: 0 | Sugarbeets plant response rating (0 to 10 scale) [11, 23]: 0 | Sugarbeets plant response rating [11, 18]: 0 | Sugarbeets plant response rating [11, 20]: 0 | Sugarbeets plant response rating [11, 21]: 0 | Plant response rating (0 to 10; 0 is no effect, 10 is complete control), Sugarbeets ([11]; Rate 250 g/ha, Postemergence): 0 | Wild oats plant response rating [12, 17]: 0 | Wild oats plant response rating [12, 22]: 0 | Wild oats plant response rating [12, 18]: 0 | Wild oats plant response rating [12, 20]: 0 | Wild oats plant response rating [12, 21]: 0 | Plant response rating (0 to 10; 0 is no effect, 10 is complete control), Wild oats ([12]; Rate 250 g/ha, Postemergence): 0 | Nutsedge plant response rating [13, 17]: 0 | Nutsedge plant response rating [13, 22]: 0 | Nutsedge plant response rating (0 to 10 scale) [13, 23]: 0 | Nutsedge plant response rating [13, 19]: 0 | Nutsedge plant response rating [13, 20]: 0 | Nutsedge plant response rating [13, 21]: 0 | Plant response rating (0 to 10; 0 is no effect, 10 is complete control), Nutsedge ([13]; Rate 250 g/ha, Postemergence): 0 | Rice plant response rating [14, 24]: 0 | Rice plant response rating [14, 25]: 0 | Rice plant response rating [14, 26]: 0 | Rice plant response rating [14, 27]: 0 | S. Flatsedge plant response rating [15, 24]: 0 | S. Flatsedge plant response rating [15, 25]: 0 | S. Flatsedge plant response rating [15, 26]: 0 | S. Flatsedge plant response rating [15, 27]: 0 | Ducksalad plant response rating [16, 24]: 0 | Ducksalad plant response rating [16, 25]: 0 | Ducksalad plant response rating [16, 26]: 0 | Ducksalad plant response rating [16, 27]: 0
